Measured values from patent publication US5696093A (CRC for Biopharmaceutical Research Pty Limited, priority 1994, dated 1997).
Entries after “also recorded” stand apart in the source; their conditions may differ. Like-named read-outs stand apart in the source and are kept apart here. Where no end group is shown, it is not given here.

Legend:
[1] = test system: internal maxillary artery; assay: Arterial blood pressure and nasal arterial blood flow in anaesthetised dogs after i.v. peptide; type: in vivo; details: dog, 8 nmol kg^-1 i.v.
Description: Experiments were performed on twelve adult mixed breed dogs of both sexes weighing between 4 and 9 kg. These experiments were approved by the institutional animal care and ethics committee. The dogs were anaesthetised with pentobarbitone sodium (35 mg kg^-1 i.v.). The trachea was cannulated low in the neck and the animals were artifically ventilated. A catheter connected to a Statham P23AC blood pressure transducer was placed in a femoral artery for systemic blood pressure monitoring. Another catheter was inserted in a femoral vein for administration of compounds and further doses of anaesthetic as required (0.5-1 ml of a 1-in-5 dilution of pentobarbitone). The left cervical vagus nerve was dissected high in the neck, the vagal sheath was removed and then the sympathetic nerve was separated from the vagal trunk. […] Bipolar platinum electrodes connected to a Grass S 88 stimulator (Grass Instruments, Quincy, USA) were used for stimulation of the proximal portion of the cervical sympathetic nerve and the cut peripheral end of the parasympathetic nerve. The identification of cervical sympathetic nerve was confirmed by observing dilation of the pupil with its electrical stimulation. The left external carotid artery was disserted up to the internal maxillary artery. […] The superficial temporal artery was cannulated for selective injection of agents into the main nasal arterial blood supply. The nasal arterial blood flow was recorded with a transonic flow probe (3SB454) placed around the internal maxillary artery and connected to a T206 ultrasonic blood flowmeter (Transonic System Inc., N.Y., U.S.A.). All parameters were continuously recorded on a Grass polygraph model 7C in all experiments. The animals were allowed a one hour intervention-free period following completion of surgery.
Group 1 (n+8): Solutions of ACh (5.5×10^-11 to 5.5×10^-8 mol). VIP (3×10^-11 to 3×10^-9 mol), PH1 (3.3×10^-11 to 1.6×10^-8 mol) and NA (6×10^-11 mol to 6×10^-8 mol) in 1 ml of saline, were infused into the superficial temporal artery over a period of 15 sec. […]

[2] = test system: dog nasal mucosa; assay: Parasympathetic nerve-evoked nasal vasodilatation in anaesthetised dogs; type: in vivo; details: for parasympathetic vasodilatation after administration, in words: i.v.
[3] = target: T1, prejunctional (neuropeptide Y Y2) receptor (Rattus norvegicus, UniProt Q9ERC0); details: Potter et al., 1989; cited from earlier work
T1 construct: from tissue; host or cells: whole anaesthetised Wistar rat (cardiac vagal nerve endings)
T1 sequence (Q9ERC0 1-381): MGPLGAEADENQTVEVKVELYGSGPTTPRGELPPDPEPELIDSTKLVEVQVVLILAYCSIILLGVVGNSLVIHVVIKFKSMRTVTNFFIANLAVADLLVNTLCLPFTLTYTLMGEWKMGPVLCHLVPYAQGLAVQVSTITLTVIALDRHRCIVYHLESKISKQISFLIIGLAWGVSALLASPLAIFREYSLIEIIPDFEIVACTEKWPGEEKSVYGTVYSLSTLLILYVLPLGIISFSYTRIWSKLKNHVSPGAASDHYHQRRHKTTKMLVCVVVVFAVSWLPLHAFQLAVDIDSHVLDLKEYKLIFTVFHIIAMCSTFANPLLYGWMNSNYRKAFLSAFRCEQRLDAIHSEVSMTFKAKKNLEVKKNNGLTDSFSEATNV

[4] = test system: internal maxillary artery; assay: Local intra arterial injection, vascular resistance in the internal maxillary artery (Rma); type: in vivo; details: dog; for effect on Rma, in words / rank order potency on a molar basis (reduction of Rma): local intra arterial injection; for vascular effect after pretreatment with adrenoceptor blockers and atropine: phentolamine, propranolol and atropine pretreatment
Description: Experiments were performed on twelve adult mixed breed dogs of both sexes weighing between 4 and 9 kg. These experiments were approved by the institutional animal care and ethics committee. The dogs were anaesthetised with pentobarbitone sodium (35 mg kg^-1 i.v.). The trachea was cannulated low in the neck and the animals were artifically ventilated. A catheter connected to a […] blood pressure transducer was placed in a femoral artery for systemic blood pressure monitoring. Another catheter was inserted in a femoral vein for administration of compounds and further doses of anaesthetic as required (0.5-1 ml of a 1-in-5 dilution of pentobarbitone). The left cervical vagus nerve was dissected high in the neck, the vagal sheath was removed and then the sympathetic nerve was separated from the vagal trunk. […] The left zygomatic arch was removed and the […] the sphenopalatine ganglion were exposed by a procedure similar to the one described by […] & Wilson (1973). Bipolar platinum electrodes connected to a Grass S 88 stimulator (Grass Instruments, Quincy, USA) were used for stimulation of the proximal portion of the cervical sympathetic nerve and the cut peripheral end of the parasympathetic nerve. The identification of cervical sympathetic nerve was confirmed by observing dilation of the pupil with its electrical stimulation. The left external carotid artery was […] up to the internal maxillary artery. The main arterial branches located beyond to the superficial temporal artery were ligated as described previously by Lacroix et al. (1988), a procedure which leaves the internal maxillary artery flow supplying only the nasal mucosa. The superficial temporal artery was cannulated for selective injection of agents into the main nasal arterial blood supply. The nasal arterial blood flow was recorded with a transonic flow probe (3SB454) placed around the internal maxillary artery and connected to a T206 ultrasonic blood flowmeter (Transonic System Inc., N.Y., U.S.A.). All parameters were continuously recorded on a Grass polygraph model 7C in all experiments. The animals were allowed a one hour intervention-free period following completion of surgery. Group 1 (n+8): […] The administration of saline alone had no measurable effect. An interval of 5 min was allowed between successive injections. Fifteen minutes after the completion of the ACh, VIP, PH1 and NA injections, parasympathetic nerve stimulations (5 V, 5 ms) were performed at continuous frequencies of 10, 20 and 30 Hz, each for 10 sec. Each stimulation was performed 3 min after the blood flow in the internal maxillary artery returned to base line from the preceding stimulation. Sympathetic nerve stimulation (15 V, 5 ms) was then performed continuously at 10 Hz for 3 min. Parasympathetic nerve stimulations were repeated five minutes, thirty minutes and then one hour after sympathetic nerve stimulation. This entire protocol was repeated after pretreatment with the α-adrenoceptor antagonist phentolamine (0.5 mg kg^-1 h^-1), the β-adrenoceptor antagonist propranolol (1 mg kg^-1) and the parasympathetic muscarinic receptor blocker atropine (0.5 mg kg^-1), all delivered by local intra arterial (i.a.) injection. […] Analysis of results: changes of the nasal arterial blood flow were expressed in terms of vascular resistance in the maxillary artery (Rma), obtained by dividing the driving mean arterial blood pressure in the femoral artery by the peak value of the blood flow volume rate in the maxillary artery. Before each experiment a zero flow in the maxillary artery was obtained by clamping the artery upstream to the transonic probe for 30 sec. The duration of the responses were given in second sand calculated from the end of the electrical stimulation until return to former basal values. All data are presented as mean ± standard error of the […]. Statistical differences were evaluated using one way ANOVA test.

[5] = target: T2, neuropeptide Y Y2 receptor (Homo sapiens, UniProt P49146); assay: Competition with radiolabelled peptide YY for binding to SMS-KAN cells
T2 construct: endogenous in cells; host or cells: SMS-KAN human neuroblastoma cells (whole cells; gift of Dr Thue Schwartz)
T2 sequence (P49146 1-381): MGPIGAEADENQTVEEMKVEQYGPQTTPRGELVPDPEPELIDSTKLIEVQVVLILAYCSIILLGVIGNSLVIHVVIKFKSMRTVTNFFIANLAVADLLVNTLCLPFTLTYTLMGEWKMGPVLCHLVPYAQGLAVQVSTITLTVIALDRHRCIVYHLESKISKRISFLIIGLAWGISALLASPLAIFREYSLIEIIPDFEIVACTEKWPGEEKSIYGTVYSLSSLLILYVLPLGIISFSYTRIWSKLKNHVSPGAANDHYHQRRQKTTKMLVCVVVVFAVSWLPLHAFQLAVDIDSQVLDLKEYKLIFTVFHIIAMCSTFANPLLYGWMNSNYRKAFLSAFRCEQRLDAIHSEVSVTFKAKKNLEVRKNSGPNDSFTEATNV
Description: (§1) All media and materials for tissue culture were obtained from Cytosystems (Castle Hill, NSW, Australia). Cells were harvested by treatment with 0.2% EDTA in phosphate buffered saline and immediately used in the binding assay described.

[6] = target: T1, prejunctional (neuropeptide Y Y2) receptor; assay: Inhibition of cardiac vagal action in anaesthetised rats (prejunctional activity); type: in vivo; details: for EC50 / inhibition of cardiac vagal action (prejunctional effect), in words: anaesthetised rats, i.v.; for EC50: log of the dose which evokes 50% of the maximum response, mean ± SEM, five rats
Description: Experiments were carried out on adult rats (Wistar) of both sexes (250-350 g), anaesthetised with sodium pentobarbitone (Nembutal, Boehringer-Ingleheim; 60 mg/kg, i.p.). […] The femoral vein was cannulated for administration of peptides and further doses of anaesthetic. The left femoral artery was cannulated to record arterial pressure. Both vagus nerves were cut. […] The electrocardiogram was measured using needle electrodes and monitored on one channel of an osciloscope. Pulse interval (the period between successive beats of the heart) was recorded beat-by-beat by triggering from ECG. Pulse interval and arterial pressure were recorded on the pen recorder.
Dose-response curves were constructed from group data for all rats. Because of the long time-course of action of the peptides tested, not all peptides were given to each rat.

[7] = target: T3, postjunctional (neuropeptide Y Y1) receptor (Rattus norvegicus, UniProt P21555); assay: Pressor action (arterial blood pressure) in anaesthetised rats (postjunctional activity); type: in vivo; details: i.v.
T3 construct: from tissue; host or cells: whole anaesthetised Wistar rat (vasculature)
T3 sequence (P21555 1-382): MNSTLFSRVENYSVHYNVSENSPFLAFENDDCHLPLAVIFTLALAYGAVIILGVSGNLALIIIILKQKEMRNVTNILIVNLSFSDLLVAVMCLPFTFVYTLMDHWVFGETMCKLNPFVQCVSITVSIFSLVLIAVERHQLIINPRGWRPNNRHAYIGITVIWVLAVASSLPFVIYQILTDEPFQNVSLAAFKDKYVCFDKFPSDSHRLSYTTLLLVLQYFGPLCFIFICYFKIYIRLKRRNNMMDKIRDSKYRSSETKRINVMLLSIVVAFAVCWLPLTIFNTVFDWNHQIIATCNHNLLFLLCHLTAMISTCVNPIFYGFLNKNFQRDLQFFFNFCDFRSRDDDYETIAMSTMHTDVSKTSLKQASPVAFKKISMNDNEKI
Description: Experiments were carried out on adult rats (Wistar) of both sexes (250-350 g), anaesthetised with sodium pentobarbitone (Nembutal, Boehringer-Ingleheim; 60 mg/kg, i.p.). The trachea was cannulated and the animal artifically ventilated. The femoral vein was cannulated for administration of peptides and further doses of anaesthetic. The left femoral artery was cannulated to record arterial pressure. Both vagus nerves were cut. […] The frequency was chosen to increase pulse interval by approximately 100 ms, a submaximal effect on this variable. The electrocardiogram was measured using needle electrodes and monitored on one channel of an osciloscope. Pulse interval (the period between successive beats of the heart) was recorded beat-by-beat by triggering from ECG. Pulse interval and arterial pressure were recorded on the pen recorder. […]
As an indication of prejunctional activity two parameters were measured; the maximum percent inhibition of the increase in pulse interval evoked by stimulation of the vagus nerve following injection of peptide (Δ pulse interval, % inhibition) and the time to half recovery of this effect (T50). For pressor action, an indicator of postjunctional activity, two parameters were also measured; the peak pressor response following injection of peptide (Δ blood pressure) and the duration of the increase in blood pressure (Duration). […]

[8] = target: T4, neuropeptide Y Y1 receptor (Homo sapiens, UniProt P25929); assay: Competition with radiolabelled peptide YY for binding to SK-N-MC cells
T4 construct: host or cells: SK-N-MC human neuroblastoma cells (whole cells)
T4 sequence (P25929 1-384): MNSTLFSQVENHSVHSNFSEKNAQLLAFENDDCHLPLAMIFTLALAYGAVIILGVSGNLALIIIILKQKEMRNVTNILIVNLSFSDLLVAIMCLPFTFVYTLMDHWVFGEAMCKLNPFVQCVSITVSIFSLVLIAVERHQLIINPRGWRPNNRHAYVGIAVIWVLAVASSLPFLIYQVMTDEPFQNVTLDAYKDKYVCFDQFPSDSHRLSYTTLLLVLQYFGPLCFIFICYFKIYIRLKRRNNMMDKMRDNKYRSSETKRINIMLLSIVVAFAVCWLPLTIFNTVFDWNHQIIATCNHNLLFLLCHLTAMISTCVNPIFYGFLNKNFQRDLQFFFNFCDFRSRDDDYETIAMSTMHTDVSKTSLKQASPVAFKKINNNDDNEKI
Description: as §1

[9] = test system: endogenous ATP receptor; assay: Calcium response to ATP in Y1 receptor-transfected CHO cells; type: cell-based, Chinese Hamster; details: 1 μM ATP
Description: Cells were suspended in loading media (Modified RPMI, 10 mM Hepes, 1% newborn fetal calf serum) and incubated in a spinner flask at 37° C., for 2.5 hours at 1×10^6 cells/ml. Cells were then treated with […] Fura-2 AM for 30 minutes at 37° C., washed twice with loading media and resuspended at 5×10^6 cells/ml. Immediately before use in fluorescence spectroscopy, cells were recovered by centrifugation at 1000 rpm and resuspended at 1×10^6 cells/ml in a modified Krebs buffer (135 mM NaCl, 4.7 mM KCl; 1.2 /nM MgSO4, 1.2 mM KH2 PO4, 5 mM NaHCO3, 1 mM CaCl2, 2.8 mM glucose, and 10 mM Hepes, pH 7.4) containing 1 mM sulphinpyrazone. Fluorescence recordings were made on an Hitachi fluorescence spectrometer (F4010) at 340 nm (excitation) and 505 nm (emission) over 10 minutes with slit widths of 5 nm and a response time of 2 seconds. Intracellular calcium levels were quantitated using equations described (Grynkiewicz et al., 1985).

In the case of “[Leu^31, Pro^34 ] neuropeptide Y [[Leu^31, Pro^34] NPY]”, the “duration of the blood pressure increase” value [1] is reported as “more than 7 min”, the “reduction of blood flow in the internal maxillary artery (nasal mucosa blood flow)” value [1] is reported as ~20% and the “increase in arterial blood pressure” value ([1]; after phentolamine, propranolol and atropine) is reported as 23±2.8 mmHg. The “parasympathetic vasodilatation after administration, in words” value ([2]; Y1 agonist 8 nmol kg^-1, Y2 agonist 20 nmol kg^-1) was “no influence on the parasympathetic nerve-evoked vasodilatation; also recorded: no influence on the subsequent parasympathetic vasodilatation” and the “parasympathetic vasodilatation after administration, in words” value ([2]; Y1 agonist 8 nmol kg^-1, Y2 agonist 20 nmol kg^-1, Pro^31 ] NPY) was “not modified”.

With C[N+](C)(C)CC[N+]1(C)Cc2c(Cl)c(Cl)c(Cl)c(Cl)c2C1 [chlorisondamine] the “vasodilatation evoked by vidian nerve stimulation after ganglion blocker” value ([2]; 2 mg kg^-1, i.v.) was “inhibition of vasodilatation”.

For neuropeptide Y-(13-32), the “prejunctional activity in vivo, earlier study” value [3] is listed as “inactive in vivo”.

In the case of CC(=O)OCC[N+](C)(C)C.[Cl-] [ACh, acetylcholine chloride], the “effect on Rma, in words” value [4] is reported as “dose-dependant reductions of the Rma”, the “rank order potency on a molar basis (reduction of Rma)” value [4] is reported as “ACh>VIP>PHI” and the “vascular effect after pretreatment with adrenoceptor blockers and atropine” value (“vascular effect after pretreatment” below) [4] is reported as “virtually abolished”.

In the case of vasoactive intestinal polypeptide [VIP], the “effect on Rma, in words” value [4] is reported as “dose-dependant reductions of the Rma”, the “rank order potency on a molar basis (reduction of Rma)” value [4] is reported as “ACh>VIP>PHI” and the “vascular effect after pretreatment” value [4] is reported as “remained intact”.

In the case of NC[C@H](O)c1ccc(O)c(O)c1 [NA], the “effect on Rma, in words” value [4] is reported as “dose-dependant increases in Rma” and the “vascular effect after pretreatment” value [4] is reported as “virtually abolished”.

“Ac-LRHYLNLLTRQRY-NH2 [N-acetyl [Leu^28, Leu^31] neuropeptide Y-(24-36)]” gave an IC50 [5] of 3.9 ± 0.4 nM, an EC50 ([6]; read-out: EC50 for T50 (time to half recovery of vagal inhibition) (converted)) of 2.51 nM and an EC50 ([6]; read-out: EC50 for Δ pulse interval (converted)) of 3.16 nM.

With peptide histidine isoleucine [PHI] the “effect on Rma, in words” value [4] was “dose-dependant reductions of the Rma”, the “rank order potency on a molar basis (reduction of Rma)” value [4] was “ACh>VIP>PHI” and the “vascular effect after pretreatment” value [4] was “remained intact”.

In the case of “LRHYLNLLTRQRY-NH2 [[Leu^28, Leu^31] neuropeptide Y-(24-36)]”, the “pressor effect (Δ blood pressure), in words” value [7] is reported as “did not significantly increase blood pressure at any dose tested”, the IC50 [5] is reported as 12.7 ± 1.2 nM and the “binding to Y1 receptor on SK-N-MC cells, in words” value [8] is reported as “neither N-acetyl [Leu^28, Leu^31 ] neuropeptide Y-(24-36) or [Leu^28, Leu^31 ] neuropeptide Y-(24-36) shoed significant binding”. The “duration of transient response (T50)” value ([6]; Table 1 footnote, no EC50 calculated) was < 2 min, the “inhibition of cardiac vagal action (prejunctional effect), in words” value [6] was “significant inhibitory or prejunctional actions but these effects are transient” and the “inhibition of cardiac vagal action (prejunctional effect), in words” value ([6]; listed as [Leu^27, Leu^31 ] neuropeptide Y-(24-36)) was “significant inhibitory effects on cardiac vagal action”.

With Nc1ncnc2c1ncn2[C@@H]1O[C@H](COP(=O)(O)OP(=O)(O)OP(=O)(O)O)[C@@H](O)[C@H]1O [ATP] the “calcium response to ATP after addition of N-acetyl [Leu28, Leu31] neuropeptide Y-(24-36)” value [9] was 33.8 nM and the “calcium response to ATP before addition of N-acetyl [Leu28, Leu31] neuropeptide Y-(24-36)” value [9] was 46.3 nM.
